How the values were obtained:
Assay type in all cases: in vivo
NE = experiment: PD onset study, bone marrow NE activity, C57BL/6 mice; conditions: for Percent change from vehicle NE: bone marrow, 5 mg/kg BID oral
Experimental: (§1) A 14-day PD onset study was performed in female C57BL/6 mice dosed BID. Mice were dosed by oral gavage either with vehicle (0 mg/kg) or 5 mg/kg brensocatib (BID; 10 mg/kg/day) for 1, 4, 7, 10, or 14 consecutive days. Plasma was collected from animals during the first 24 h of dosing at 1, 2, 8, 9, 10, and 24 h post the initial dose. Note the 8- and 24-h plasma samples were prior to the afternoon dose and the second day dose (if applicable), respectively. Plasma was used for PK analysis via LC-MS/MS. On prescribed days, animals were sacrificed 16 h post final dose, and the hind bones (femurs and tibias) were collected at necropsy for bone marrow analysis of NSP activities by kinetic enzymatic assays.
(§2) For the mice, each animal had the femurs and tibias of both hind limbs harvested. For the rat, the femur and tibia from a single hind limb per animal was harvested. Bones were kept on wet ice until processing for bone marrow collection. In brief, bone cutters were used to cut the epiphysis (knobby ends) off the long bones to expose the bone marrow filled cavity. Each bone cavity was then flushed with 5 mL/bone (mouse) or 10 mL/bone (rat) of ice-cold RPMI media through a […] and collected in a 50-mL conical tube. Cells were spun down at 2,500 × g at 4°C for 5 min and the supernatant was aspirated. After which, bone marrow cells were lysed with 1X red blood cell (RBC) lysis buffer (Abcam, ab204733) to eliminate contaminating RBCs and washed with PBS to remove any residual RBC lysis buffer. The resulting white blood cells (WBC) were subsequently lysed with 1% (v/v) Triton X-100 in PBS. Lysates were added to 96-well plates and stored at −80°C until NSP analyses.
(§3) Bone marrow lysates prepared as described above were diluted and plated onto 96-well assay plates to quantify NSP activities as described previously ([Basso et al., 2022]). Briefly, peptide substrates for NE (N-Methoxysuccinyl-Ala-Ala-Pro-Val-7-amido-4-methylcoumarin; Sigma; St. Louis, MO; Excitation/Emission at 350/450 nm), PR3 ((7-Methoxycoumarin-4-yl)acetyl-lysyl-(picolinoyl)-Tyr-Asp-Ala-Lys-Gly-Asp-N-3-(2-4-dinitrophenyl)-2-3-diaminopropyonyl-NH2); GenScript; Piscataway, NJ; Excitation/Emission at 340/430 nm), and CatG (N-Succinyl-Ala-Ala-Pro-Phe p nitroanilide; Sigma; Absorbance at 405 nm) were added at a final assay concentration of 100 μM, 40 μM, and 200 μM, respectively, and either fluorescence or absorbance was quantified using a Synergy microplate reader (BioTek; Winooski, VT). The specific NSP activity in each sample was calculated as the total activity minus the activity in the presence of a specific NSP inhibitor (if used), including elastase inhibitor (Abcam) for NE, sivelestat (Abcam) for PR3, and cathepsin G inhibitor I (Cayman Chemical; Ann Arbor, MI) for CatG. NSP concentrations were interpolated based on their activities relative to the standard curves created using active human NE protein (Sigma), active human PR3 protein (Sigma), and active human CatG protein (Sigma), respectively. Due to unavailability of commercial mouse and/or rat NE, PR3, and CatG proteins, the corresponding human proteins were used instead since their catalytic ability is considered to be conserved across species. A portion of each cell lysate sample was retained for protein quantification using a Pierce™ BCA Protein Assay Kit (Thermo Fisher). The NSP activities were normalized for the cell lysate protein concentrations.
(§4) The Pierce™ BCA Protein Assay Kit was used to measure the total protein of the samples after lysis to allow for subsequent normalization. The manufacturer’s instructions for use were followed when performing this assay on a portion of the sample lysates which were diluted in PBS, the same diluent as used for preparation of the standard. Plates were read on the Biotek Synergy plate reader with Gen5 software.

PR3 [1] = experiment: Bone marrow PR3 activity after repeated dosing, Wistar rats; conditions: for Reduction of PR3 activity vs vehicle / Change From Vehicle Control (%) PR3: 7 days
Experimental: Briefly, animals were weighed and randomized into different treatment groups. In total, three different dosing levels of brensocatib were tested in each species and strain; each QD dosing level was equivalent to 1.5-times the matching daily BID dose. For BID dosing, the second daily dose was administered 8-h post the morning dose. C57BL/6 mice were dosed either BID or QD for 7 consecutive days at 0/0, 0.5/0.75, 2/3, and 20/30 mg/kg/day (BID/QD). BALB/c mice were dosed for 7 consecutive days at 0/0, 0.2/0.3, 2/3, and 20/30 mg/kg/day (BID/QD). SD rats were dosed for 9 consecutive days at 0/0, 0.2/0.3, 2/3, and 20/30 mg/kg/day (BID/QD). Wistar rats were dosed for 7 consecutive days at 0/0, 0.2/0.3, 2/3, and 20/30 mg/kg/day (BID/QD).
At the completion of the study, animals were sacrificed 16–24 h post their final dose. The hind limb bones (femurs and tibias) were collected at necropsy for bone marrow analysis of NSP activities by kinetic enzymatic assays ([Basso et al., 2022]). See section Quantification of Bone Marrow NSP Activities for details.
as §2, §3
The Pierce™ BCA Protein Assay Kit was used to measure the total protein of the samples after lysis to allow for subsequent normalization. […]

PR3 [2] = experiment: PD onset study, bone marrow PR3 activity, C57BL/6 mice; conditions: for Percent change from vehicle PR3: bone marrow, 5 mg/kg BID oral
Experimental: as §1, §2, §3, §4

[3] = 5 mg/kg BID, curve fit with free min and max

## Cn1c(=O)oc2ccc(-c3ccc(C[C@@H](C#N)NC(=O)[C@@H]4CNCCCO4)cc3)cc21 [brensocatib]
NE; [3]
  Onset: Maximum reduction (plateau), NE: 80%
  Onset: Time to reach 50% reduction, NE: 4.3 days
  Onset: Time to reach max reduction, NE: 6.4 days
NE; after 1 day of treatment
  Percent change from vehicle NE: −28% (p = 0.0826)
NE; after 4 days of treatment
  Percent change from vehicle NE: −59% (p < 0.0001)
NE; after 7 days of treatment
  Percent change from vehicle NE: −83% (p < 0.0001)
NE; after 10 days of treatment
  Percent change from vehicle NE: −76% (p < 0.0001)
NE; after 14 days of treatment
  Percent change from vehicle NE: −82% (p < 0.0001)
PR3 [1]; BID highest dose (20 mg/kg/day)
  Reduction of PR3 activity vs vehicle: 46%
PR3 [1]; QD highest dose (30 mg/kg/day)
  Reduction of PR3 activity vs vehicle: 59%
PR3 [1]; highest dose level 20/30 (BID/QD) mg/kg/day
  Combined BID and QD percent reduction, PR3: 53%
PR3 [1]; oral BID 0.2 mg/kg/day
  Change From Vehicle Control (%) PR3: +10% (p = 0.9848)
PR3 [1]; oral BID 2 mg/kg/day
  Change From Vehicle Control (%) PR3: +22% (p = 0.8768)
PR3 [1]; oral BID 20 mg/kg/day
  Change From Vehicle Control (%) PR3: −46% (p = 0.4135)
PR3 [1]; oral QD 0.3 mg/kg/day
  Change From Vehicle Control (%) PR3: +6% (p = 0.9963)
PR3 [1]; oral QD 3 mg/kg/day
  Change From Vehicle Control (%) PR3: −35% (p = 0.5635)
PR3 [1]; oral QD 30 mg/kg/day
  Change From Vehicle Control (%) PR3: −59% (p = 0.1437)
PR3 [2]; [3]
  Onset: Maximum reduction (plateau), PR3: 76%
  Onset: Time to reach 50% reduction, PR3: 4.5 days
  Onset: Time to reach max reduction, PR3: 8.0 days
PR3 [2]; after 1 day of treatment
  Percent change from vehicle PR3: −5% (p = 0.9972)
PR3 [2]; after 4 days of treatment
  Percent change from vehicle PR3: −43% (p = 0.0236)
PR3 [2]; after 7 days of treatment
  Percent change from vehicle PR3: −85% (p < 0.0001)
PR3 [2]; after 10 days of treatment
  Percent change from vehicle PR3: −71% (p < 0.0001)
PR3 [2]; after 14 days of treatment
  Percent change from vehicle PR3: −81% (p < 0.0001)

Reference: paper PMC10394516, “The pharmacokinetic profile of brensocatib and its effect on pharmacodynamic biomarkers including NE, PR3, and CatG in various rodent species” (Frontiers in Pharmacology, 2023)
